Laboratory results published in ChEMBL document CHEMBL1201862, “PubChem BioAssay data set” (2004).
The source made the active and inactive calls.

Tests used:
[1] = target: Luciferin 4-monooxygenase (Photinus pyralis, UniProt P08659); assay: firefly luciferase enzyme inhibitors, dose response, biochemical, luminescence (AID 1891)
[2] = ZM109 Env clade C HIV-1 fusion inhibitors, dose response, HeLa effector, CEM target cells, luciferase, cherry-pick (AID 652058); type: functional, cell-based
[3] = off-target signal loss in HeLa-CEM21 co-culture – HeLa F-luc CTL cells, cherry-picked, counter-screen for HIV-1 Env fusion inhibitor project, dose response (AID 652040); type: functional, cell-based;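 further: potency for signal decrease marking cytotoxic or nonspecific inhibition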
[4] = inhibitors of HIV Env-driven cell fusion, dose response, cherry-pick (AID 652057); type: functional, cell-based
[5] = inhibitors of clade B AD8 Env fusion, dose response, cell-based, cherry-pick (AID 652062); type: functional;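 further: luciferase signal from cell-cell fusion driven by HIV-1 clade B AD8 Env; potency is for inhibitors of fusion seen as a drop in luminescence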
[6] = Luminescence Cell-Based Dose Confirmation HTS to Identify Inhibitors of Platelet Dense Granule Release. [Related pubchem assays: 1663 (Primary HTS), 1678 (Summary of Project)]; type: functional
[7] = target: T1, Fatty acid synthase (Homo sapiens, UniProt P49327); assay: FAS thioesterase domain inhibitors, dose response, biochemical, endpoint fluorescence intensity, uHTS hits (AID 624327); type: functional;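 further: fluorescence from hydrolysis of an O-methyl fluorescein acyl ester substrate by the enzyme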
[8] = target: T1, Fatty acid synthase; assay: FAS thioesterase domain inhibitors, dose response, biochemical, kinetic fluorescence intensity (AID 624326); type: functional;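 further: rate of fluorescence rise from hydrolysis of a fluorogenic O-methyl fluorescein ester substrate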
[9] = target: T2, Short transient receptor potential channel 4 (Mus musculus, UniProt Q9QUQ5); assay: mouse TRPC4 channel inhibitors, dose response, cell-based, HEK293 TRPC4/mu-opioid, Fluo-4 calcium (AID 434942); type: functional;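 further: potency of inhibitors blocking the TRPC4 calcium response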
T2 sequence (Q9QUQ5 whole entry): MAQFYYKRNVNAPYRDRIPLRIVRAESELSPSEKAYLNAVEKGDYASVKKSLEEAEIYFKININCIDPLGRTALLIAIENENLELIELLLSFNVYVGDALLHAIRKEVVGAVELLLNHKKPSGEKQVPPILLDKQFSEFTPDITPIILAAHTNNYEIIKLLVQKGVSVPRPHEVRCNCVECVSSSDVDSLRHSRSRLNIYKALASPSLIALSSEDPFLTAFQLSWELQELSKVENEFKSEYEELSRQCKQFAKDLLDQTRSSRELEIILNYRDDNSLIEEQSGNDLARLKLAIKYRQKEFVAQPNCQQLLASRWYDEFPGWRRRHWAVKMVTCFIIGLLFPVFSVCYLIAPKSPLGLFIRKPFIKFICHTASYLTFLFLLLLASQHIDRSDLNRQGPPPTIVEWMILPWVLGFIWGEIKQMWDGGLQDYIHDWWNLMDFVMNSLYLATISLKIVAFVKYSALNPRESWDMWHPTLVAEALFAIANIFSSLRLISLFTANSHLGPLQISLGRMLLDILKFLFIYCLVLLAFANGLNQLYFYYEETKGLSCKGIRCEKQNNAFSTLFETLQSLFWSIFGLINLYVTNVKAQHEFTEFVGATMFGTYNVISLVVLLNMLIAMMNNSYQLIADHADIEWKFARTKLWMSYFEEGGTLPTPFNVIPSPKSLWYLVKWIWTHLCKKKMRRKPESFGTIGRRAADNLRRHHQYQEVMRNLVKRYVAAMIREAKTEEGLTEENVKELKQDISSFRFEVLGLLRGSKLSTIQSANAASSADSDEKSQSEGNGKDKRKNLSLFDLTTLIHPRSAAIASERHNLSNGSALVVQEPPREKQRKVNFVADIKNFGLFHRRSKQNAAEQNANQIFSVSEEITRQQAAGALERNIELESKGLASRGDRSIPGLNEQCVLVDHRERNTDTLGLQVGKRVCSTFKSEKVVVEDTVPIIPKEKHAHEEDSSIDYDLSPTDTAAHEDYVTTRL

[10] = microbe, parasite or virus in culture; type: functional; settings: Mycobacterium tuberculosis
[11] = target: T3, RNA-binding protein pos-1 (Caenorhabditis elegans, UniProt G5EF15); assay: inhibitors of POS-1/mex-3 RNA binding, dose response, biochemical, fluorescence polarization (AID 1964);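 further: purified POS-1 fused to maltose binding protein made in E. coli; potency of compounds blocking POS-1 binding to fluorescent RNA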
T3 sequence (G5EF15 whole entry): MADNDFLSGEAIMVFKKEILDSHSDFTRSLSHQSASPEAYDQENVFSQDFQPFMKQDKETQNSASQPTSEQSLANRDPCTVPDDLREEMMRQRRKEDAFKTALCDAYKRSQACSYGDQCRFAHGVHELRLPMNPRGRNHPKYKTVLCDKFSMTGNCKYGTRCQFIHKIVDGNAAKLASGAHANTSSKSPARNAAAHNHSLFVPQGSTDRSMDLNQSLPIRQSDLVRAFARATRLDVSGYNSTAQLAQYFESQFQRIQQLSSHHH

[12] = target: T4, Zinc finger protein mex-5 (Caenorhabditis elegans, UniProt Q9XUB2); assay: MEX-5/TCR-2 RNA interaction inhibitors, dose response, biochemical, C. elegans, fluorescence polarization (AID 1960)
T4 sequence (Q9XUB2 whole entry): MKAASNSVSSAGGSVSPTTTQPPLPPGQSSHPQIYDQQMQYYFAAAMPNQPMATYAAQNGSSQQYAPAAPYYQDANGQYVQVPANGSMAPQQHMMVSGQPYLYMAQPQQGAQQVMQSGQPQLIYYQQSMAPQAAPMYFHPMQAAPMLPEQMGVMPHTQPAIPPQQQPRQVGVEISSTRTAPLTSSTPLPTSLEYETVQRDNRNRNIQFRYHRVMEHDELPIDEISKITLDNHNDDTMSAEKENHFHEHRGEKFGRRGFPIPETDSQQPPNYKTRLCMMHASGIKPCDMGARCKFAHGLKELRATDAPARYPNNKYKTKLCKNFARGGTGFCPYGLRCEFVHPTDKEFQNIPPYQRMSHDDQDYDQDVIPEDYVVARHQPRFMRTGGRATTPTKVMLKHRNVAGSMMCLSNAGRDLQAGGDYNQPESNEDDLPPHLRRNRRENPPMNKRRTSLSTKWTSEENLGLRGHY

[13] = growth suppression of PTEN-null colon cells, dose response, cell-based, HCT116 PTEN knockout (AID 1047); type: functional;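 further: HCT116 colon tumor cells with PTEN knocked out; cells exposed to compound for 60 hours before readout; potency for loss of cell viability measured by luminescence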
[14] = MC4R antagonists, dose response, counter-screen for LGR2 antagonist project, cell-based, plate reader, cherry pick (AID 743444); type: functional;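 further: transfected HEK 293 cells stimulated with alpha-MSH peptide; potency of inhibitors of the alpha-MSH evoked signal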
[15] = inhibitors of intracellular T. cruzi replication, confirmation, NIH3T3 host cells, beta-gal luminescence (AID 2044); type: functional, cell-based;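 further: intracellular parasites grown in NIH/3T3 mouse fibroblasts as host cells; luminescent beta-galactosidase reporter signal from transgenic T. cruzi replicating inside host cells; inhibitors lower the luminescence signal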
[16] = cytotoxicity toward NIH3T3 fibroblasts, dose response, counter-screen, cell-based, ATP luminescence, mouse fibroblasts (AID 2010); type: functional;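 further: cells exposed to compound for about 90 hours before reading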
[17] = growth suppression of beta-catenin-knockout colon cells, dose response, cell-based, HCT116, human colon tumor (AID 1045); type: functional;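 further: HCT116 colon tumor cells with beta catenin knocked out; cells exposed to compound for 60 hours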
[18] = A549 cell cytotoxicity, dose response, cytotoxicity control, plate reader, cherry-pick, antagonist series (AID 743412); type: functional, cell-based
[19] = target: Induced myeloid leukemia cell differentiation protein Mcl-1 (Homo sapiens, UniProt Q07820); type: functional
[20] = inhibitors of SNCA 5'UTR-driven reporter translation, confirmation, H4 neuroglioma cells, luminescence (AID 1988); type: functional, cell-based
[21] = Luminescence Cell-Based Dose Response HTS to Identify Inhibitors of 5'UTR Stem-Loop Driven Prion Protein mRNA Translation in H4 Neuroglioblastoma Cells. [Related pubchem assays: 1827 (Project Summary), 1813 (Primary HTS)]; type: functional
[22] = inhibitors of firefly luciferase expression or activity, dose response, H4 neuroglioma cells, luminescence (AID 1990); type: functional, cell-based

T1 sequence (P49327 whole entry, the tested form may be a part): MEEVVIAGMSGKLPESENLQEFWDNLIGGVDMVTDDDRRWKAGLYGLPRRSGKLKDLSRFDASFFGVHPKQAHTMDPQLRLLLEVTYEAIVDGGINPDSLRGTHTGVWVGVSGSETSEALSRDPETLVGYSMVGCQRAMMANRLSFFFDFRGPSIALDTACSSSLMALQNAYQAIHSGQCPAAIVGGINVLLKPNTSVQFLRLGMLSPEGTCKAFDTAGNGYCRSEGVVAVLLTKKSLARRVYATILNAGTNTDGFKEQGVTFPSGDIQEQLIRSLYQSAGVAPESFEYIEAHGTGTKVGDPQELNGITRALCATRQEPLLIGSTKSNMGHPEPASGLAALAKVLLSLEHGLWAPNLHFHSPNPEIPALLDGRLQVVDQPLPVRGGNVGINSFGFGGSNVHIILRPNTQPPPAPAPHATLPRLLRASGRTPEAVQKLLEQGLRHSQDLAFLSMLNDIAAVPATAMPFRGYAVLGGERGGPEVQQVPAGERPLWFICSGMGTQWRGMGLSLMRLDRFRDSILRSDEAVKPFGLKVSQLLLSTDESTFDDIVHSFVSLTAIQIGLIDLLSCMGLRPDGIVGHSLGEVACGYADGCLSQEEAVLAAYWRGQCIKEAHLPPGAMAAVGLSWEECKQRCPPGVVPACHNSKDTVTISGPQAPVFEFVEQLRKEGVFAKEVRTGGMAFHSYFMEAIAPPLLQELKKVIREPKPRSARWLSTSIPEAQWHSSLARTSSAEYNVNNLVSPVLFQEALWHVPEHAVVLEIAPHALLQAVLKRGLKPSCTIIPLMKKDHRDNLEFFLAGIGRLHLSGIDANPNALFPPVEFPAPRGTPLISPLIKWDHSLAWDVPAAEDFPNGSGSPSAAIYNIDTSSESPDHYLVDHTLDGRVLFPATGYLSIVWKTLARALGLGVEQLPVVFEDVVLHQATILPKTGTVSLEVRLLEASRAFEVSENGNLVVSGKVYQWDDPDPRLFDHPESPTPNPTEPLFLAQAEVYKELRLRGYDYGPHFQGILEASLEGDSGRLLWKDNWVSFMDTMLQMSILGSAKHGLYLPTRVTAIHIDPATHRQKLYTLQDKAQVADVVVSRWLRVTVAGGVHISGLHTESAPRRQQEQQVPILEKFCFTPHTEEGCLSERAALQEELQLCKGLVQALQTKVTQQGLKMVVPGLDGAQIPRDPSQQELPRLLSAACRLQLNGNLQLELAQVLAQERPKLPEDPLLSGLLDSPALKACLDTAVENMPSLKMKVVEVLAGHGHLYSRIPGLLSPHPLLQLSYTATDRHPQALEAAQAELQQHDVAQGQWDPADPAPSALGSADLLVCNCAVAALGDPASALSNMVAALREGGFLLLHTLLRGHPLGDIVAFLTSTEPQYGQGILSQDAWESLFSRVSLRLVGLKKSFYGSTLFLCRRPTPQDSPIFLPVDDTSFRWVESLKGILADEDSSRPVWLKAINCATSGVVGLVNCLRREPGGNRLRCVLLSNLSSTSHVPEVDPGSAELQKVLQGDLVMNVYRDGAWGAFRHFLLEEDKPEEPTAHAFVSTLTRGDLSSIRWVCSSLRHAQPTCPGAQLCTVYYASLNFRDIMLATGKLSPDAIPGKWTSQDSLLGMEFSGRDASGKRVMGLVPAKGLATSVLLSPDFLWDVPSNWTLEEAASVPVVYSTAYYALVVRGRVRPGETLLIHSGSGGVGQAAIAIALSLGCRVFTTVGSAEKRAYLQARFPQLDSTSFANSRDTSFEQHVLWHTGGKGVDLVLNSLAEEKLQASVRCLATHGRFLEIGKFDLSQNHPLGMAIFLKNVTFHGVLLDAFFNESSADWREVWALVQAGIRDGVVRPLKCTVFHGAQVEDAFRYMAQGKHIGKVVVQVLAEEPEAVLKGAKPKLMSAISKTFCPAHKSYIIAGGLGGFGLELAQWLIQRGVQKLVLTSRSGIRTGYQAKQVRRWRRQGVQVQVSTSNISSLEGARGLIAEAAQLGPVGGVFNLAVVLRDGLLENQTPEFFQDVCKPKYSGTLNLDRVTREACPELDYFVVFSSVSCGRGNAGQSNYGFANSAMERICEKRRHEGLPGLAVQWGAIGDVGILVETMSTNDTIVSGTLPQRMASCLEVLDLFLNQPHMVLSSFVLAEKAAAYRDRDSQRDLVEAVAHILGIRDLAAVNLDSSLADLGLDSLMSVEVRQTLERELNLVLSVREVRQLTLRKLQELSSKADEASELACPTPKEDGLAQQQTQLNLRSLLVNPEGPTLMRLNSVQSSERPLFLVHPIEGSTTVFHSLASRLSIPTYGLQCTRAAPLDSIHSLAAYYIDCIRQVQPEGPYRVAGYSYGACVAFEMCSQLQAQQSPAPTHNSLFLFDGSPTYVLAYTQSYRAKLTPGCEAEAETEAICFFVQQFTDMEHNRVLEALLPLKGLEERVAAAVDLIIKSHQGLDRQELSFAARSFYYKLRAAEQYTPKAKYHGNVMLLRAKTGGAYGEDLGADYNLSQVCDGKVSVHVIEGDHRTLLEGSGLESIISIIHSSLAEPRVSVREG
Sequence of Induced myeloid leukemia cell differentiation protein Mcl-1 (Q07820 whole entry): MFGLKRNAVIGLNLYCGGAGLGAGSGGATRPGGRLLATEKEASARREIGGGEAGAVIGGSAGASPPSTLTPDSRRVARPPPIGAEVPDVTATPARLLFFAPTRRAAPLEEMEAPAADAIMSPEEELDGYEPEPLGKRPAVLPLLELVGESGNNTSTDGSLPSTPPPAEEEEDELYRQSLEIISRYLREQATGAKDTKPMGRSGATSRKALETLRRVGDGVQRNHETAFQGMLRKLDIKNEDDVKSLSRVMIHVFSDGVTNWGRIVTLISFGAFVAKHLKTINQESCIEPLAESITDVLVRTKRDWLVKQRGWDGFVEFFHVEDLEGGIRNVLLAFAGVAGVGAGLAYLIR
Sequence of Luciferin 4-monooxygenase (P08659 whole entry, the tested form may be a part): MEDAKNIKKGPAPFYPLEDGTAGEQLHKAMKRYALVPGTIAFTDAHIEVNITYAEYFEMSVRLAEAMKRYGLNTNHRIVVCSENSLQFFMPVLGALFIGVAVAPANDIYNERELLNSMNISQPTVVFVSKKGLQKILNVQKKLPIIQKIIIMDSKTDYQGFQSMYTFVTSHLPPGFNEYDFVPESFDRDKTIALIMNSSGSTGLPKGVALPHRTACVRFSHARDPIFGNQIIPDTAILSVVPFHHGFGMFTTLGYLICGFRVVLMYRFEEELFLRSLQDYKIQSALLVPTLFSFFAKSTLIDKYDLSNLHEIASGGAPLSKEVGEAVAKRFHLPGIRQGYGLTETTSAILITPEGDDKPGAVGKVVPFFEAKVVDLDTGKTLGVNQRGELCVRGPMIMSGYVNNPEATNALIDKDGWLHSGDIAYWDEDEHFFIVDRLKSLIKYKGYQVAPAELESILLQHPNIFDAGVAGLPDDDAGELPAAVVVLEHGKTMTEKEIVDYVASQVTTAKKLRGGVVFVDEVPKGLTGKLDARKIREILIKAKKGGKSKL

With `COc1ccc(Cl)cc1NC(=O)Nc1cnccn1` the EC50 [1] was > 112 µM (not active), the AC50 [2] was 37.9 µM (active) and the AC50 [3] was 2.19 µM (active). For the same compound, the AC50 [4] was 3.57 µM (active), the AC50 [5] was 14.2 µM (active) and the EC50 [6] was > 112 µM (not active).
For `O=C(O)CC(NC(=O)CCC1CCCCC1)c1cc([N+](=O)[O-])ccc1Cl` (configuration not stated), the IC50 [7] was 10.7 µM (active) and the IC50 [8] was 8.7 µM (active).
For `CC(C1CC2CCC1C2)n1c(S)nnc1-c1cccs1` (configuration not stated), the EC50 [9] was 2.66 µM (active).
For `CCCCc1ccc(NC(=O)CSC2=NN3CCCC(=O)N=C3S2)cc1`, the CC50 [10] was > 40 µM (active), the EC50 [11] was > 300 µM (not active) and the EC50 [12] was > 300 µM (not active).
For `N#CCCSc1nc(N2CCOCC2)c2c(c1C#N)CCCC2`, the IC50 [7] was 7.57 µM (active) and the IC50 [8] was 5.49 µM (active).
In the case of `CNC(=S)N(Cc1ccc(OC)cc1)C1CC(=O)N(c2ccc(Cl)cc2)C1=O` (configuration not stated), the IC50 [7] is reported as 11 µM (active) and the IC50 [8] is reported as 9.36 µM (active).
With `CC(C)CCNC(=O)C(c1ccc(O)cc1)N(Cc1cccs1)C(=O)C1COc2ccccc2O1` (configuration not stated) the EC50 [13] was 19.5 µM (active), the AC50 [14] was 35.3 µM (active) and the EC50 [15] was 1.58 µM (active). The EC50 [16] was > 60 µM (inconclusive), the EC50 [17] was 21.4 µM (active) and the AC50 [18] was > 52 µM (inactive).
For `Cc1ccc(-n2nc(-c3cccs3)cc2C(=O)NCC2CCCO2)c(C)c1` (configuration not stated), the EC50 [9] was 4.73 µM (active).
For `CCN(CC)S(=O)(=O)c1ccc(N2CCCC2)c(NC(=O)Cc2cc(OC)c(OC)c(OC)c2)c1`, the AC50 [2] was 5.2 µM (active), the AC50 [3] was 6.7 µM (active) and the AC50 [4] was 3.42 µM (active). For the same compound, the AC50 [5] was 7.04 µM (active).
With `CCOCCCNCc1cc(Br)ccc1OCc1ccccc1` the EC50 [9] was 1.33 µM (active).
For `COc1ccc2nc(Nc3sc4c(c3C(N)=O)CCCC4)sc2c1`, the IC50 [19] was 8.79 µM (active).
For `Cc1ccc(Cn2nnnc2CN2CCC(c3nc4cc(Cl)ccc4[nH]3)CC2)cc1`, the AC50 [2] was 2.37 µM (active), the CC50 [10] was 6.84 µM (active) and the EC50 [20] was 2.45 µM (active). For the same compound, the EC50 [21] was 10.5 µM (active), the AC50 [4] was 19.5 µM (active) and the EC50 [22] was 7.23 µM (active).
In the case of `O=C(NCc1ccccc1)/C(=C\c1cccc([N+](=O)[O-])c1)NC(=O)c1ccco1`, the IC50 [7] is reported as 5.46 µM (active) and the IC50 [8] is reported as 4.06 µM (active).
